We go through 4 compounds from article doi:10.1101/2024.06.17.599304v1, “Dizocilpine derivatives with neuroprotective effect lacking the psychomimetic side effects” (biorxiv, 2024).

Test [1] deals with T1, hGluN1/hGluN2A (Homo sapiens, UniProt Q05586+Q12879). Put plainly: whole-cell patch clamp, HEK293. As to conditions: -60 mV; 1 mM L-glutamate, 100 µM glycine; pH 7.3; voltage-dependent block. Also on record: gene GRIN1; cDNA vectors for human GluN1-1a and GluN2A co-transfected with GFP in HEK293 cells; diheteromeric receptor. It is filed as cell-based. From the text: whole-cell patch clamp, HEK293 on hGluN1/hGluN2A

Test [2] deals with T2, human plasmatic butyrylcholinesterase (hBChE) (Homo sapiens, UniProt P06276).
T2 construct: gene BCHE
Put plainly: biochemical.

Test [3] has as its target T1, hGluN1/hGluN2A. Put plainly: cell-based. Also on record: gene GRIN1; cDNA vectors for human GluN1-1a and GluN2A co-transfected with GFP in HEK293 cells; diheteromeric receptor; whole-cell voltage-clamp electrophysiology, inhibition of steady-state L-glutamate-induced currents at -60 mV. Particulars: HEK293; -60 mV, 1 mM L-glutamate. As to the method: (§1) First, we determined the relative inhibition of all novel compounds on the two major diheteromeric NMDA receptor subtypes in the adult cortex – GluN1/GluN2A and GluN1/GluN2B [1] – using a clinically relevant concentration (3 µM). We kept the measured cells at a membrane potential of -60 mV, and the values of relative inhibition by the compounds were calculated from the L-glutamate-induced responses of human versions of the GluN1/GluN2A (hGluN1/hGluN2A) and GluN1/GluN2B (hGluN1/hGluN2B) receptors obtained under steady-state conditions. […] Specifically, in the case of hGluN1/hGluN2A receptors, we obtained relative inhibition values ranging from ∼5% for compound 3h to ∼93% for compound 6f, while for hGluN1/hGluN2B receptors, we measured values ranging from ∼3% for compound 3i to ∼92% for compound 6g at a fixed dose of 3 µM of the tested compound. […] It can be assumed that the positive and negative effects of a given inhibitor of the NMDA receptor in vivo are caused by their affinity and the kinetics of inhibition, in addition to their availability in the CNS. […] In further experiments, we generated concentration-response curves for 6f (0.03-10 µM) and 3l (0.3-300 µM) on both hGluN1/hGluN2A and hGluN1/hGluN2B receptors at negative (-60 mV) and positive (40 mV) membrane potentials (Fig. 2A-D). […] (A, C) Representative whole-cell voltage-clamp recordings of HEK293 cells expressing hGluN1/hGluN2A or hGluN1/hGluN2B receptors showing the inhibitory effects of compound 6f (0.03 - 300 µM) and compound 3l (0.3 - 300 µM) at membrane potentials of 40 mV (A) and -60 mV (C). Glu = 1 mM L-glutamate. (B, D) Normalized inhibitory concentration-response curves for compound 6f and compound 3l for hGluN1/hGluN2A and hGluN1/hGluN2B receptors at membrane potentials of 40 mV (B) and -60 mV (D). Concentration-response curves were fitted using Equation 1; the resulting IC50 values, Hill coefficients, and the numbers of cells measured for each membrane potential are shown in Table 3.

Test [4] deals with T3, human recombinant AChE (hAChE) (Homo sapiens, UniProt P22303).
T3 construct: recombinant enzyme purchased from Merck
The test is described as follows: modified Ellman's method. Type of test: biochemical.

For test [5], the target named is T4, hGluN1/hGluN2B (Homo sapiens, UniProt Q05586+Q13224). Put plainly: whole-cell patch clamp, HEK293. Type of test: cell-based. Also on record: gene GRIN1; cDNA vectors for human GluN1-1a and GluN2B co-transfected with GFP in HEK293 cells; diheteromeric receptor. As to conditions: -60 mV; 1 mM L-glutamate, 100 µM glycine; pH 7.3; voltage-dependent block. From the text:
whole-cell patch clamp, HEK293 on hGluN1/hGluN2B

For test [6], the target named is T4, hGluN1/hGluN2B. The test is described as follows: cell-based. Further details: gene GRIN1; cDNA vectors for human GluN1-1a and GluN2B co-transfected with GFP in HEK293 cells; diheteromeric receptor; whole-cell voltage-clamp electrophysiology, inhibition of steady-state L-glutamate-induced currents at -60 mV. Particulars: HEK293; -60 mV, 1 mM L-glutamate. The procedure:
as §1

Test [7] deals with T4, hGluN1/hGluN2B. Further details: gene GRIN1. Particulars: -60 mV; 1 mM L-glutamate, 100 µM glycine; pH 7.3.
Test [8] deals with T1, hGluN1/hGluN2A. Further details: gene GRIN1. Particulars: -60 mV; 1 mM L-glutamate, 100 µM glycine; pH 7.3.
Test [9] deals with T2, human plasmatic butyrylcholinesterase (hBChE).

Where a name gives a salt, the structure may show the parent alone. Read-outs that look alike come from different tables or passages of the source.

T2 sequence (P06276 29-602): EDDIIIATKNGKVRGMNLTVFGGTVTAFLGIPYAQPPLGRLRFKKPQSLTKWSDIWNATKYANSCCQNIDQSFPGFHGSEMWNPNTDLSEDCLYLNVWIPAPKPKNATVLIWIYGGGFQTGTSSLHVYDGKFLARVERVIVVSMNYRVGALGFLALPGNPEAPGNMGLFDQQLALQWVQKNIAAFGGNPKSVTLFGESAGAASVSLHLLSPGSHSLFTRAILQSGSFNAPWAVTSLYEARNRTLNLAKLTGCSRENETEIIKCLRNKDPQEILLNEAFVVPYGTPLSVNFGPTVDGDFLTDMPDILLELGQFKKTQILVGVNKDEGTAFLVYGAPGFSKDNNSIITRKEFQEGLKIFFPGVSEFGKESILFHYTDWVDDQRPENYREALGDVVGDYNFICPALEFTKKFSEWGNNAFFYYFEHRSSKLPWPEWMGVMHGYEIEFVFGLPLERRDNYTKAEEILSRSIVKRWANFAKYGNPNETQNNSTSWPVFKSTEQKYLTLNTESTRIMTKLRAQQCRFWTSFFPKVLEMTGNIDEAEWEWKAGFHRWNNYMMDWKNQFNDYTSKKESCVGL
T1 sequence (Q12879 23-1464, other chains not shown): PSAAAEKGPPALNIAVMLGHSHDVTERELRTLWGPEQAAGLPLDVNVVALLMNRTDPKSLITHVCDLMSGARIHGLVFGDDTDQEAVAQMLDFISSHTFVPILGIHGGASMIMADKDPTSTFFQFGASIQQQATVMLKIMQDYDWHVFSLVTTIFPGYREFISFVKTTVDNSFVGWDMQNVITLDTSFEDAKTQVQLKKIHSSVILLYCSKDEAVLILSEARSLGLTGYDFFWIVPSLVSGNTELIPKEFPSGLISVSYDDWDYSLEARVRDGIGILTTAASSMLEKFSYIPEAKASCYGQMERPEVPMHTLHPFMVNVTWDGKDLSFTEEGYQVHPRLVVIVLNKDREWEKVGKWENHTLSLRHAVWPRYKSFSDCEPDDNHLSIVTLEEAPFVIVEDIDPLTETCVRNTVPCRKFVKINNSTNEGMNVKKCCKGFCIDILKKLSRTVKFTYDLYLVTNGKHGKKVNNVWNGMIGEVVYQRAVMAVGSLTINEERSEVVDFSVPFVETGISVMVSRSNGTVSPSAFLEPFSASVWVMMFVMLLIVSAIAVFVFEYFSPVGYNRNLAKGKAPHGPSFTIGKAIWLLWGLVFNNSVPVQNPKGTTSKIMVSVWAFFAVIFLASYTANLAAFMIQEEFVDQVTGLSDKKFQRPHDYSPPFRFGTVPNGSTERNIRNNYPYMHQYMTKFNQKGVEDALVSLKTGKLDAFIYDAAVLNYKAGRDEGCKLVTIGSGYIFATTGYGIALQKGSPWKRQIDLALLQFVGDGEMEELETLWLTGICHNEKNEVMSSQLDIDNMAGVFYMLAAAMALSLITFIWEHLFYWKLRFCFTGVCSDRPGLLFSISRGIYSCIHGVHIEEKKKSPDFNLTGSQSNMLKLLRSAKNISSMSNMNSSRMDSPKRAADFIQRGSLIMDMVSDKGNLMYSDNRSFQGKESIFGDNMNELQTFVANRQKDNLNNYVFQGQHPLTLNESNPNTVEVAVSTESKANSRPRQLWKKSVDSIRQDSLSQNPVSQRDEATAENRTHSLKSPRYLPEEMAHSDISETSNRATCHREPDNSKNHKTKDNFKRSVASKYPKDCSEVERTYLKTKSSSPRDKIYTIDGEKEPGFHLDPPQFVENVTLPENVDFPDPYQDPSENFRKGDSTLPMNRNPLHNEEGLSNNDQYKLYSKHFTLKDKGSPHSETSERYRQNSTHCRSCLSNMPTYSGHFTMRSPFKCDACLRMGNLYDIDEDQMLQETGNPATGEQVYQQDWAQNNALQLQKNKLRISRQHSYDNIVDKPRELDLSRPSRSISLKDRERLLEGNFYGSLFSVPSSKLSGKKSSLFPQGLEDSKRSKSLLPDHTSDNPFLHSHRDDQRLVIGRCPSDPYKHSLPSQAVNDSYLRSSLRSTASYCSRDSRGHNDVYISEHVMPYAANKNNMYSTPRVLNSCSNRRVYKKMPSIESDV
T4 sequence (Q13224 27-1484, other chains not shown): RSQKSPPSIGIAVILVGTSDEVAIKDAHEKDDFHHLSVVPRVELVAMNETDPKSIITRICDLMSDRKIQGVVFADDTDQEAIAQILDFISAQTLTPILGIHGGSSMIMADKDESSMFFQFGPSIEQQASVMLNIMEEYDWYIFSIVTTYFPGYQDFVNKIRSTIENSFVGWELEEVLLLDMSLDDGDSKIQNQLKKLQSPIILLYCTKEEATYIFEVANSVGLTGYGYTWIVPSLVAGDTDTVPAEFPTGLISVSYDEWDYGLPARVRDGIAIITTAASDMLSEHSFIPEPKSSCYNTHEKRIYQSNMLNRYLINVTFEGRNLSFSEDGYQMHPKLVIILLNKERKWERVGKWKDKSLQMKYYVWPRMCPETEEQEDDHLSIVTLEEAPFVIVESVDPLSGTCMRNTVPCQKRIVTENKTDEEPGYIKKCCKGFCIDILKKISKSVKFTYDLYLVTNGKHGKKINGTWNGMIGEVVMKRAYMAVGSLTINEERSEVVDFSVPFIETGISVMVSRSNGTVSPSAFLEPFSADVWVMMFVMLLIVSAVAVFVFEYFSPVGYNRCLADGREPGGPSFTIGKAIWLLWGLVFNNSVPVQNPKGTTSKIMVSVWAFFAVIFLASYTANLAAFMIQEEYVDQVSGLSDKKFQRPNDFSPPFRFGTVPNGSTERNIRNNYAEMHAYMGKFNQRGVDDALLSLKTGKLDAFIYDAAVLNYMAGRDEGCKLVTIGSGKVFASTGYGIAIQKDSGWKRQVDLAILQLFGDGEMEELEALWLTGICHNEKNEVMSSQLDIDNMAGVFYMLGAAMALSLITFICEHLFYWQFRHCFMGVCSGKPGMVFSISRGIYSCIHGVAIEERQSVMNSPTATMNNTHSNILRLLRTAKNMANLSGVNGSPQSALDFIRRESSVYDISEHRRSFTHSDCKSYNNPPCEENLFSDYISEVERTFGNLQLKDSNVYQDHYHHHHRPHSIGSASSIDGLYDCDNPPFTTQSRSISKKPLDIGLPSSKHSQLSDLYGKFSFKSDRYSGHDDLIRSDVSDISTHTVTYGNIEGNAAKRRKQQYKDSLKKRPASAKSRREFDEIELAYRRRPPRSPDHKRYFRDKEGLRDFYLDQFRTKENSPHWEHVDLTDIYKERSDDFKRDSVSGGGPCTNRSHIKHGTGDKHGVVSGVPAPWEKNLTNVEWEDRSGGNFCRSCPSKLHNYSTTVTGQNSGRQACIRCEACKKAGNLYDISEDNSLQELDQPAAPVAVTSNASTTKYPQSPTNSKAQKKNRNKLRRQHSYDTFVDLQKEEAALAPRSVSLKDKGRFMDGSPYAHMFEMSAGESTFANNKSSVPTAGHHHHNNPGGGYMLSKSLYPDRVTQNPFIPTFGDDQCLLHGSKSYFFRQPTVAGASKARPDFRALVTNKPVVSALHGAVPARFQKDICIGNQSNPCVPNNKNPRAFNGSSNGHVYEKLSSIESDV
T3 sequence (P22303 32-614): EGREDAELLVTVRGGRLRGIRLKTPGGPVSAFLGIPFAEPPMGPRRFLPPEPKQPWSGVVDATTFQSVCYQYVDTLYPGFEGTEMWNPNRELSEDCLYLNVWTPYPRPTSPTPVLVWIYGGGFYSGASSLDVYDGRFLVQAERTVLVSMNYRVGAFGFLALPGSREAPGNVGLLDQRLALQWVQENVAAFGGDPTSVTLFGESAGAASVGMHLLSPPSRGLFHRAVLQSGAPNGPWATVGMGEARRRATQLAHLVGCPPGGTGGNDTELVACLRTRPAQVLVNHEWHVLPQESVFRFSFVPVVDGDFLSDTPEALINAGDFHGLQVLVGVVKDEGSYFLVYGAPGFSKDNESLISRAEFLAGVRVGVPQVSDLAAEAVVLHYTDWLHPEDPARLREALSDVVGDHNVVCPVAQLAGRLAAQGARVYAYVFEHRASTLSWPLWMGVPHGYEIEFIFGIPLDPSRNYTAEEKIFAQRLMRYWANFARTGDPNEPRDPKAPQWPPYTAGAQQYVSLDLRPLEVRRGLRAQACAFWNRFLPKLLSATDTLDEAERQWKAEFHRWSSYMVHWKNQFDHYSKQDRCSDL

The term IC50 denotes the concentration that gives 50% inhibition. A word on the inhibition: it is the percentage by which the read-out fell short of the control. A higher inhibition goes with a response far below the control. For the compound `OCCNC1c2ccccc2CCc2ccccc21` [3l, 2-((10,11-dihydro-5H-dibenzo[a,d][7]annulen-5-yl)amino)ethanol hydrochloride], the half-inhibitory concentration (IC50) in test [1] is 4.42 ± 0.9 µM; in test [2], greater than 100 µM; in [4], greater than 100 µM; in test [5], 4.4 ± 0.42 µM. The inhibition at 3 µM in test [3] worked out at 48 ± 5.18%; in [6], 49.7 ± 4.47%.
In the case of `CC(C)CNC1c2ccccc2C=Cc2ccccc21` [6f, N-isobutyl-5H-dibenzo[a,d][7]annulen-5-amine hydrochloride], the IC50 in [1] was 0.36 ± 0.06 µM; in test [2] it was greater than 100 µM; in test [4], greater than 100 µM; in [5], 0.16 ± 0.01 µM. Also, the inhibition at 3 µM in [3] was 93.2 ± 1.11%; in test [6] it was 91.77 ± 0.71%.
Take `C1=Cc2ccccc2C(NC2CCCCC2)c2ccccc21` [6g, N-cyclohexyl-5H-dibenzo[a,d][7]annulen-5-amine hydrochloride]: the “RI (%) at 3 μM” value in test [7] came to 92.37 ± 1.82%; in [8] it was 92.12 ± 1.48%. This compound also returned an IC50 in test [2] of 8.5 ± 0.4 µM.
In turn, `C1=Cc2ccccc2C(N2CCCCC2)c2ccccc21` [6h, 1-(5H-dibenzo[a,d][7]annulen-5-yl)piperidine hydrochloride] gave an IC50 in test [9] of 16.5 ± 0.9 µM. The inhibition at 3 µM stood at 29.9 ± 2.73% in test [3] and 58.4 ± 4.37% in [6].
